Reference: publication PMC8268887, “Peptide/β-Peptoid Hybrids with Ultrashort PEG-Like Moieties: Effects on Hydrophobicity, Antibacterial Activity and Hemolytic Properties” (International Journal of Molecular Sciences, 2021)
Converted amounts (≈) assume the structure as drawn.

How the values were obtained:
P. aeruginosa PAO1 = assay type: cell-based, Pseudomonas aeruginosa; conditions: PAO1, 20 h
Method: (§1) MIC values of the peptidomimetics were evaluated by using the modified Hancock lab protocol in non-binding polystyrene microtiter plates. Bacterial suspensions of ~5 × 10^5 CFU/mL in Mueller-Hinton broth (Difco, Sparks, MD, USA) were prepared with Mg^2+ and Ca^2+ concentrations of 4 mg/L each. The compounds were dissolved in H2O and diluted in 0.01% acetic acid, 0.2% BSA (final concentration). Aliquots (11 µL) of test compounds were then transferred to wells containing bacterial suspensions (100 µL). Low-binding sterile tubes and tips (Axygen, Union City, CA, USA) were used for preparation and transfer of the solutions of the compounds. Following incubation for 20 h of the covered plates at 35 °C (±2 °C) with circular shaking at 180 rpm, the MICs were read.

[1] = system: P. aeruginosa NMI 7197/19; assay type: cell-based, Pseudomonas aeruginosa; conditions: NMI 7197/19, 20 h
Method: as §1

K. pneumoniae ATCC 13883 = assay type: cell-based; conditions: ATCC 13883, 20 h
Method: as §1

E. faecalis ATCC 29212 = assay type: cell-based; conditions: ATCC 29212, 20 h
Method: as §1

S. aureus ATCC 29213 = assay type: cell-based, Staphylococcus aureus; conditions: ATCC 29213, 20 h
Method: as §1

[2] = Antiproliferative activity on HepG2 cell line (MTT assay); assay type: cell-based; conditions: HepG2 cells; at 1280 µg/mL, value in parenthesis; read-out: HepG2 cell viability at highest concentration tested
Method: (§2) Effect of compounds on mammalian cell viability was estimated on the HepG2 cell line ATCC HB-8065. In brief, HepG2 cells were seeded into flat-bottomed 96-well plates at a concentration of 5000 cells per well. Subsequently, the cells were incubated for 24 h in a humidified incubator (5% CO2, 37 °C). Then, the medium was removed, and the cells were incubated for 48 h in a humidified incubator (5% CO2, 37 °C) with peptidomimetics in serial dilutions. Then, an 3-(4,5-dimethylthiazol-2-yl)-2,5-diphenyltetrazolium bromide (MTT) assay was performed as previously described. In brief, after incubation with the test compounds, the culture medium was removed, and then fresh medium with 0.2 mg/mL MTT was added into each well of the plate. The cells were then incubated (3 h, 37 °C, 5% CO2), followed by removal of the medium with MTT and addition of 200 μL dimethyl sulfoxide at once to each sample. Absorbance of MTT was measured using the spectrophotometer TECAN Infinite M1000 at 540 nm. The relative viability was calculated by using the formula: ODtreated cells × 100/ODcontrol cells. The IC50 values are calculated by using the program Graph Pad Prism® 5.0. For all compounds, the test range was 10–1280 μg/mL.

[3] = system: HepG2 cell line ATCC HB-8065; assay: as above; assay type: cell-based; conditions: inhibition of growth of HepG2 cells, 48 h, MTT; highest concentration tested 1280 µg/mL
Method: as §2

A. baumannii NMI 3658/17 = assay type: cell-based, Acinetobacter baumannii; conditions: NMI 3658/17, 20 h
Method: as §1

A. baumannii ATCC 19606 = assay type: cell-based, Acinetobacter baumannii; conditions: ATCC 19606, 20 h
Method: as §1

[4] = Hydrophobicity by retention in analytical RP-HPLC (% MeCN at peak elution); assay type: physicochemical
Method: For each peptide/β-peptoid hybrid oligomer, the retention time in RP-HPLC was measured on four different columns (details shown in Table 2): Phenomenex Luna C18(2) column (recommended for hydrophobic compounds [49]), Phenomenex Luna Omega Polar C18 column (recommended for both very polar and non-polar compounds [50]) as well as Phenomenex Aeris Peptide XB-C18 [51] and Sigma-Aldrich Supelco Discovery BIO Wide pore C18 [52] columns, which both are recommended for analysis of peptides. The retention times of the compounds on each column were used to calculate the acetonitrile concentration at peak elution (denoted merely as % MeCN; Table 1). As expected, the % MeCN for each compound varied somewhat between the four columns.
Starting materials and solvents were acquired from commercial suppliers (Iris Biotech, Markredwitz, Germany; Fluorochem, Hadfield, UK; and Merck, Darmstadt, Germany) and used without further purification. Water used for analytical and preparative high-performance liquid chromatography (HPLC) was filtered through a 0.22-μm capsule filter using an Evoqua LaboStar Pro TWF UV system. Purity and retention time of each peptidomimetic were determined by analytical HPLC by using a Phenomenex Luna Omega Polar C18 column (150 × 4.6 mm; particle size: 3 μm; pore size: 100 Å) on a Shimadzu Prominence and Shimadzu Nexera system using an aqueous acetonitrile (MeCN, VWR, Søborg, Denmark) gradient with 0.1% trifluoroacetic acid (TFA, Iris Biotech, Markredwitz, Germany) added (eluent A: 5:95 MeCN–H2O + 0.1% TFA, eluent B: 95:5 MeCN–H2O + 0.1% TFA); a flow rate of 0.8 mL/min was used. For elution of peptidomimetics, a linear gradient of 0% to 60% B during 15 min was used with UV detection at λ = 220 nm. […] Retention time of each peptidomimetic was also determined by using a Phenomenex Luna C18(2) column (150 × 4.6 mm; particle size: 3 μm; pore size: 100 Å), a Phenomenex Aeris Peptide XB-C18 column (150 × 4.6 mm; particle size: 3.6 μm; pore size: 100 Å), and a Sigma-Aldrich Supelco Discovery BIO Wide pore C18 column (150 × 4.6 mm, particle size: 3 µm; pore size: 300 Å). For each peptidomimetic, the percentage of MeCN at peak elution was calculated from the retention time by using the following formula:(1) %MeCN =0.95 (0.6Rt/15 min)+0.05 (1−0.6Rt/15 min)

[5] = Determination of hemolytic activity; assay type: cell-based; conditions: red blood cell suspension in PBS buffer, human red blood cells at 400 µg/mL, 37 °C
Method: The lysis of human red blood cells was measured almost as previously described, albeit with modifications. In brief, a suspension of freshly drawn human red blood cells (hRBCs) was washed three times with PBS buffer and centrifuged two times for 5 min at 2500 rpm. A two-fold serial dilution of compounds in PBS buffer was prepared. Plates (conical-bottomed 96-well plates) with three replicate wells per dilution, each containing 1% red blood cell suspension, were prepared and dosed with the test compound to achieve a final concentration of 400 μg/mL in a total volume of 100 μL. The plates were incubated (37 °C) for 60 min with mild agitation, and then the cells were pelleted by centrifugation at 1500 rpm for 5 min. The supernatants (50 μL) were then transferred to a fresh 96-well plate, and the concentration of hemoglobin was detected by measuring the OD at 405 nm. The OD of cells incubated with 1% SDS defined 100% hemolysis, while the OD of cells incubated with PBS buffer defined 0% hemolysis. The concentration tested was 400 μg/mL (only average values are stated in Table 5). The percent hemolysis was calculated by using the formula:(3) Hemolysis (%)=100×[Asample−Aneg.control/Apos.control−Aneg.control]

E. coli NMI 3371/16 = assay type: cell-based, Escherichia coli; conditions: NMI 3371/16, 20 h
Method: as §1

E. coli ATCC 25922 = assay type: cell-based, Escherichia coli; conditions: ATCC 25922, 20 h
Method: as §1

E. coli NMI 3898/15 = assay type: cell-based, Escherichia coli; conditions: NMI 3898/15, 20 h
Method: as §1

[6] = rat, in vivo; cited from earlier work

Compound | MIC, PA (P. aeruginosa PAO1) [µg/mL] | MIC, P. aeruginosa NMI 7197/19 [1] [µg/mL] | MIC, KP (K. pneumoniae ATCC 13883) [µg/mL] | MIC, EF (E. faecalis ATCC 29212) [µg/mL] | MIC, SA (S. aureus ATCC 29213) [µg/mL] | viability at 48 h [2] [%] | HepG2 IC50 [3] [µg/mL] | MIC, A. baumannii NMI 3658/17 (A. baumannii NMI 3658/17) [µg/mL] | MIC, AB (A. baumannii ATCC 19606) [µg/mL] | % MeCN at Elution, Aeris Peptide ([4]; Phenomenex Aeris Peptide XB-C18 column, gradient 0→60% B during 15 min) [% MeCN] | % MeCN at Elution, Luna ([4]; Phenomenex Luna C18(2) column, RP-HPLC gradient 0→60% B during 15 min, relative hydrophobicity) [% MeCN] | % MeCN at Elution, Luna Omega ([4]; Phenomenex Luna Omega Polar C18 column, gradient 0→60% B during 15 min) [% MeCN] | % MeCN at Elution, Supelco Discovery ([4]; Supelco Discovery BIO Wide pore C18 column, gradient 0→60% B during 15 min) [% MeCN] | hemolysis at 60 min [5] [%] | MIC, E. coli NMI 3371/16 (E. coli NMI 3371/16) [µg/mL] | MIC, EC (E. coli ATCC 25922) [µg/mL] | MIC, E. coli NMI 3898/15 (E. coli NMI 3898/15) [µg/mL] | elimination half-life [6] [min]
NCCCC[C@H](NC(=O)CCN(Cc1ccc(F)cc1)C(=O)[C@H](CCCCN)NC(=O)COCCOCCOCCNC(=O)CCN(Cc1ccc(F)cc1)C(=O)[C@H](CCCCN)NC(=O)CCN(Cc1ccc(F)cc1)C(=O)[C@H](CCCCN)NC(=O)COCCOCCOCCNC(=O)CCN(Cc1ccc(F)cc1)C(=O)[C@H](CCCCN)NC(=O)CCN(Cc1ccc(F)cc1)C(=O)[C@@H](N)CCCCN)C(=O)N(CCC(N)=O)Cc1ccc(F)cc1 [Compound 17, H-[X]2-sPEG3-[X]2-sPEG3-[X]2-NH2] | >64 | >64 | >64 | >64 | >64 | 35 | ~1280 | 16 (≈ 7.14 µM) | 16 to 32 | 39.8 | 41.8 | 42.4 | 42.0 | 9.4 | 8 to 16 | 8 (≈ 3.57 µM) | 32 (≈ 14.3 µM) | –
VDKPPYLPRPRPIRrPGGr-NH2 [OM19r-8] | – | – | – | – | – | – | – | – | – | – | – | – | – | – | – | – | – | 1.6
